From US4385175A, “Esters of retinoic acid and azetidinone derivatives” (Bristol-Myers Company, priority 1982, dated 1983) come the findings set out here.

Like-named read-outs stand apart in the source and are kept apart here.

This assay has as its system squamous metoplasia and keratinization in organ cultures of trachea derived from vitamin A-deficient hamsters. The assay is described as follows: inhibition of squamous metaplasia and keratinization (reversal of keratinization) in tracheal organ cultures. The format is cell-based, hamster. As to conditions: Mesocricetus auratus, read-out: Reversal of Keratinization ED50.

Setting [1] is: median effective dose: dose required for reversal of keratinization of 50% of the explants, by probit analysis, hamster trachea organ culture.

Regarding `CC1=C(/C=C/C(C)=C/C=C/C(C)=C/C(=O)OCc2ccccc2N2C(=O)[C@@H](N=[N+]=[N-])[C@H]2/C=C/c2ccccc2)C(C)(C)CCC1` (relative stereo) [Compound IV], the EC50 under setting [1] came out at 0.407 nM.

With `CC1=C(/C=C/C(C)=C/C=C/C(C)=C/C(=O)OCc2cccc3c2N2C(=O)[C@@H](NC(=O)Cc4ccccc4)[C@H]2CO3)C(C)(C)CCC1` (relative stereo) [Compound VI], under setting [1], the EC50 stood at 0.39 nM.

For `CC1=C(/C=C/C(C)=C/C=C/C(C)=C/C(=O)OCc2ccccc2N2C(=O)[C@@H](NC(=O)Cc3ccccc3)[C@H]2/C=C/c2ccccc2)C(C)(C)CCC1` (relative stereo) [Compound V], the EC50 under setting [1] is 0.198 nM.

In the case of `CC1=C(/C=C/C(C)=C/C=C/C(C)=C/C(=O)OC(C(=O)c2ccccn2)c2ccccn2)C(C)(C)CCC1` (centres unmarked) [Compound VII], the EC50 under setting [1] was determined as 0.31 nM.

As to `CC1=C(/C=C/C(C)=C/C=C/C(C)=C/C(=O)O)C(C)(C)CCC1` [β-All-trans-retinoic acid, reference compound], the EC50 was 0.115 nM.
